In US10711004B2 (Genentech, Inc., priority 2018, dated 2020):
Like-named read-outs stand apart in the source and are kept apart here.

Target: human TRPA1 channel (Homo sapiens (Human), UniProt O75762)
Assay: hTRPA1 CHO Ca2+ FLIPR Tetra assay, block of cinnamaldehyde induced calcium influx
Format: cell-based
Conditions: for IC50: CHO cells expressing TRPA1, Hill coefficient fixed to 1.5; for TRPA1 IC50 compared with 3-azabicyclo[3.1.0]hexene linker and cyclobutylene linker analogues: bicyclo[3.1.0]hexene linker compounds versus same-substituent analogues (compounds 16, 191; 26, 1)
Description: CHO cells expressing TRPA1 were plated into 384-well plates, incubated overnight at 37° C., and loaded with BD calcium indicator dye for 1 hr at 37° C. followed by 15 minutes at room temperature. The assay buffer was Hank's Balanced Salt Solution (HBSS) containing 20 mM HEPES (pH readjusted to 7.4) along with 0.02% BSA.
Following dye load and plate cool down, compounds were added to the cells using FLIPR Tetra. Plates were then incubated with compounds for 10 minutes or 90 minutes at room temperature prior to adding agonist. Following this incubation, about an EC50 concentration of cinnamaldehyde (75) was added to active the channels and block of cinnamaldehyde induced calcium influx was measured.
Fixing the Hill coefficient will generally reduce variability of the IC50 determination. The IC50 results were individually examined to make sure the MIN and MAX points were set correctly prior to validation of the results.

[1] = read-out: hTRPA1 IC50 (10 min), compounds incubated 10 minutes at room temperature before cinnamaldehyde agonist
[2] = read-out: hTRPA1 IC50 (90 min), compounds incubated 90 minutes at room temperature before cinnamaldehyde agonist

Chain of human TRPA1 channel (O75762 whole entry): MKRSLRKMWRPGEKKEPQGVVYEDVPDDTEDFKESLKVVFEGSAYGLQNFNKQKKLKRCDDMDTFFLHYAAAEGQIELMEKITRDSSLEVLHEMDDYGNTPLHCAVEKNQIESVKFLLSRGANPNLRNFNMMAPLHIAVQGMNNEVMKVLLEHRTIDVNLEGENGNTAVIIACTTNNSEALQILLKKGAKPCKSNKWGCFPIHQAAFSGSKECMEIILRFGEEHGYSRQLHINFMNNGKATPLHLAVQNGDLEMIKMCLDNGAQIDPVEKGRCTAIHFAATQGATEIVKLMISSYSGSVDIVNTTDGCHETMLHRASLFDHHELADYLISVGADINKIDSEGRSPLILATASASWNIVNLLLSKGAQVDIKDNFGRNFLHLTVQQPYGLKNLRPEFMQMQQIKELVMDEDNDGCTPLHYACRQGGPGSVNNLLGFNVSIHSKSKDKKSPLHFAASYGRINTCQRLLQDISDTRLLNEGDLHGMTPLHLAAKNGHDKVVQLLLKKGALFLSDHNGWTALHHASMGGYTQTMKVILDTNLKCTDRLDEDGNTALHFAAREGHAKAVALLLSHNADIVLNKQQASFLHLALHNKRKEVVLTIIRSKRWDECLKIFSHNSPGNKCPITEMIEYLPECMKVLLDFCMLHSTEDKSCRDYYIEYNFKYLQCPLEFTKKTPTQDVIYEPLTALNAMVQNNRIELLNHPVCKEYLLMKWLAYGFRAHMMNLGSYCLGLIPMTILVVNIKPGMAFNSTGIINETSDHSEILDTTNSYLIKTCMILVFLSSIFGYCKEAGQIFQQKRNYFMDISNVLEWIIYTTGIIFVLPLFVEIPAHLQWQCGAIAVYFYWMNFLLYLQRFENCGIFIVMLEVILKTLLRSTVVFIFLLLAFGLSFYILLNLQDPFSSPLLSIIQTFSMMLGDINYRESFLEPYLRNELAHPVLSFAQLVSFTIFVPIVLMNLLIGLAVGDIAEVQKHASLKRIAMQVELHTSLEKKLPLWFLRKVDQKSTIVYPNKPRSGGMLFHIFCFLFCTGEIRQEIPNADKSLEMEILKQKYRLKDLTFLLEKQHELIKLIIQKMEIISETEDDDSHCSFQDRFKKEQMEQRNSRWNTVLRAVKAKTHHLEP

SMILES	IC50 [1]	IC50 [2]	TRPA1 IC50 compared with 3-azabicyclo[3.1.0]hexene linker and cyclobutylene linker analogues
Cn1cnc2ncn(Cc3nc([C@H]4[C@@H]5CN(c6cccc(F)c6F)C[C@@H]54)no3)c(=O)c21 [Example Compound 100, 1-((3-((1R,5S,6r)-3-(2,3-difluorophenyl)-3-azabicyclo[3.1.0]hexan-6-yl)-1,2,4-oxadiazol-5-yl)methyl)-7-methyl-1,7-dihydro-6H-purin-6-one]	12.8 nM	2.5 nM	–
Cn1cnc2ncn(Cc3nc([C@H]4C[C@H](C(=O)c5cccc(Cl)c5)C4)no3)c(=O)c21 [Example Compound 101, 1-((3-((1r,3r)-3-(3-chlorobenzoyl)cyclobutyl)-1,2,4-oxadiazol-5-yl)methyl)-7-methyl-1,7-dihydro-6H-purin-6-one]	117 nM	64 nM	–
Cc1noc2ncn(Cc3nc([C@H]4[C@@H]5CN(c6cc(Cl)ccn6)C[C@@H]54)no3)c(=O)c12 [Example Compound 104, 5-((3-((1R,5S,6r)-3-(4-chloropyridin-2-yl)-3-azabicyclo[3.1.0]hexan-6-yl)-1,2,4-oxadiazol-5-yl)methyl)-3-methylisoxazolo[5,4-d]pyrimidin-4(5H)-one]	43 nM	30 nM	–
Cn1nnc2ncn(Cc3nc([C@@H]4CC[C@@H](c5ccc(F)cc5)C4)no3)c(=O)c21 [Example Compound 106, 6-((3-((1R,3R)-3-(4-fluorophenyl)cyclopentyl)-1,2,4-oxadiazol-5-yl)methyl)-1-methyl-1,6-dihydro-7H-[1,2,3]triazolo[4,5-d]pyrimidin-7-one]	40.3 nM	44 nM	–
Cc1cc(C#N)nc2ncn(Cc3nc([C@H]4[C@@H]5CN(c6cc(Cl)ccn6)C[C@@H]54)no3)c(=O)c12 [Example Compound 107, 3-((3-((1R,5S,6r)-3-(4-chloropyridin-2-yl)-3-azabicyclo[3.1.0]hexan-6-yl)-1,2,4-oxadiazol-5-yl)methyl)-5-methyl-4-oxo-3,4-dihydropyrido[2,3-d]pyrimidine-7-carbonitrile]	49 nM	9.1 nM	–
Cc1ncn2ncn(Cc3nc([C@H]4[C@@H]5CN(c6cc(Cl)ccn6)C[C@@H]54)no3)c(=O)c12 [Example Compound 116, 3-((3-((1R,5S,6r)-3-(4-chloropyridin-2-yl)-3-azabicyclo[3.1.0]hexan-6-yl)-1,2,4-oxadiazol-5-yl)methyl)-5-methylimidazo[5,1-f][1,2,4]triazin-4(3H)-one]	61.1 nM	50 nM	–
Cc1cnn2ncn(Cc3nc([C@H]4[C@@H]5CN(c6cc(F)ccn6)C[C@@H]54)no3)c(=O)c12 [Example Compound 117, 3-((3-((1R,5S,6r)-3-(4-fluoropyridin-2-yl)-3-azabicyclo[3.1.0]hexan-6-yl)-1,2,4-oxadiazol-5-yl)methyl)-5-methylpyrazolo[5,1-f][1,2,4]triazin-4(3H)-one]	19.2 nM	7.5 nM	–

Results, then the molecule that gave them:

IC50 [1]	IC50 [2]	TRPA1 IC50 compared with 3-azabicyclo[3.1.0]hexene linker and cyclobutylene linker analogues	SMILES
49.5 nM	37 nM	–	Cn1cnc2ncn(Cc3nc([C@@H]4[C@H]5C=C(c6cccc(C(F)F)c6)C[C@H]54)no3)c(=O)c21 [Example Compound 102, 1-((3-((1R,5R,6S)-3-(3-(difluoromethyl)phenyl)bicyclo[3.1.0]hex-2-en-6-yl)-1,2,4-oxadiazol-5-yl)methyl)-7-methyl-1,7-dihydro-6H-purin-6-one]
31.9 nM	26 nM	–	Cn1cnc2ncn(Cc3nc([C@H]4[C@@H]5C=C(c6cccc(C(F)F)c6)C[C@@H]54)no3)c(=O)c21 [Example Compound 103, 1-((3-((1S,5S,6R)-3-(3-(difluoromethyl)phenyl)bicyclo[3.1.0]hex-2-en-6-yl)-1,2,4-oxadiazol-5-yl)methyl)-7-methyl-1,7-dihydro-6H-purin-6-one]
21.5 nM	3.9 nM	–	Cn1cnc2ncn(Cc3nc([C@H]4[C@@H]5CN(c6ccc(F)c(F)c6)C[C@@H]54)no3)c(=O)c21 [Example Compound 105, 1-((3-((1R,5S,6r)-3-(3,4-difluorophenyl)-3-azabicyclo[3.1.0]hexan-6-yl)-1,2,4-oxadiazol-5-yl)methyl)-7-methyl-1,7-dihydro-6H-purin-6-one]
6.12 nM	3.1 nM	–	Cn1nnc2ncn(Cc3nc([C@H]4[C@@H]5C=C(c6ccccc6)C[C@@H]54)no3)c(=O)c21 [Example Compound 108, 1-methyl-6-((3-((1 S,5 S,6R)-3-phenylbicyclo[3.1.0]hex-2-en-6-yl)-1,2,4-oxadiazol-5-yl)methyl)-1,6-dihydro-7H-[1,2,3]triazolo[4,5-d]pyrimidin-7-one]
10.4 nM	4.1 nM	–	Cn1nnc2ncn(Cc3nc([C@@H]4[C@H]5C=C(c6ccccc6)C[C@H]54)no3)c(=O)c21 [Example Compound 109, 1-methyl-6-((3-((1R,5R,6S)-3-phenylbicyclo[3.1.0]hex-2-en-6-yl)-1,2,4-oxadiazol-5-yl)methyl)-1,6-dihydro-7H-[1,2,3]triazolo[4,5-d]pyrimidin-7-one]
64 nM	27 nM	–	Cn1cnc2ncn(Cc3nc([C@@H]4[C@H]5C=C(c6ccc(F)cn6)C[C@H]54)no3)c(=O)c21 [Example Compound 110, 1-((3-((1R,5R,6S)-3-(5-fluoropyridin-2-yl)bicyclo[3.1.0]hex-2-en-6-yl)-1,2,4-oxadiazol-5-yl)methyl)-7-methyl-1,7-dihydro-6H-purin-6-one]
116 nM	78 nM	–	Cn1cnc2ncn(Cc3nc([C@H]4[C@@H]5C=C(c6ccc(F)cn6)C[C@@H]54)no3)c(=O)c21 [Example Compound 111, 1-((3-((1S,5S,6R)-3-(5-fluoropyridin-2-yl)bicyclo[3.1.0]hex-2-en-6-yl)-1,2,4-oxadiazol-5-yl)methyl)-7-methyl-1,7-dihydro-6H-purin-6-one]
36 nM	24 nM	–	Cn1cnc2ncn(Cc3nc([C@H]4[C@@H]5C=C(c6ccc7scnc7c6)C[C@@H]54)no3)c(=O)c21 [Example Compound 112, 1-((3-((1S,5S,6R)-3-(benzo[d]thiazol-5-yl)bicyclo[3.1.0]hex-2-en-6-yl)-1,2,4-oxadiazol-5-yl)methyl)-7-methyl-1,7-dihydro-6H-purin-6-one]
36.2 nM	34 nM	–	Cn1cnc2ncn(Cc3nc([C@@H]4[C@H]5C=C(c6ccc7scnc7c6)C[C@H]54)no3)c(=O)c21 [Example Compound 113, 1-((3-((1R,5R,6S)-3-(benzo[d]thiazol-5-yl)bicyclo[3.1.0]hex-2-en-6-yl)-1,2,4-oxadiazol-5-yl)methyl)-7-methyl-1,7-dihydro-6H-purin-6-one]
6.4 nM	1.7 nM	improved TRPA1 IC50 values	Cn1cnc2ncn(Cc3nc([C@H]4[C@@H]5C=C(c6cccc(F)c6)C[C@@H]54)no3)c(=O)c21 [Example Compound 114, 1-((3-((1S,5S,6R)-3-(3-fluorophenyl)bicyclo[3.1.0]hex-2-en-6-yl)-1,2,4-oxadiazol-5-yl)methyl)-7-methyl-1,7-dihydro-6H-purin-6-one]
9.73 nM	2.3 nM	improved TRPA1 IC50 values	Cn1cnc2ncn(Cc3nc([C@@H]4[C@H]5C=C(c6cccc(F)c6)C[C@H]54)no3)c(=O)c21 [Example Compound 115, 1-((3-((1R,5R,6S)-3-(3-fluorophenyl)bicyclo[3.1.0]hex-2-en-6-yl)-1,2,4-oxadiazol-5-yl)methyl)-7-methyl-1,7-dihydro-6H-purin-6-one]
